Measured values published in the NIST ThermoML archive (doi:10.1021/acs.jced.6b00496).

Assay: xn = mol fraction of the nth substance listed
Conditions: 81.5 kPa, Liquid; for speed of sound: Sing-around technique in a fixed-path interferometer; for mass density: Vibrating tube method

CCn1cc[n+](C)c1.F[B-](F)(F)F [1-ethyl-3-methylimidazolium tetrafluoroborate] + CN(C)C=O
Conditions | mass density [kg/m3] | speed of sound [m/s]
293.15 K, x1 = 0.0997 | 1019.18 | 1524.5
293.15 K, x1 = 0.2042 | 1075.44 | 1552.3
293.15 K, x1 = 0.2983 | 1116.82 | 1571.7
293.15 K, x1 = 0.4111 | 1157.47 | 1589.3
293.15 K, x1 = 0.5003 | 1184.76 | 1600.9
293.15 K, x1 = 0.585 | 1206.75 | 1609.6
293.15 K, x1 = 0.6965 | 1231.36 | 1618.8
293.15 K, x1 = 0.7833 | 1247.19 | 1625.5
293.15 K, x1 = 0.9134 | 1267.67 | 1633.1
293.15 K, x1 = 1 | 1285.95 | 1640.4
298.15 K, x1 = 0.0997 | 1014.69 | 1506.5
298.15 K, x1 = 0.2042 | 1071.12 | 1535.6
298.15 K, x1 = 0.2983 | 1112.62 | 1555.9
298.15 K, x1 = 0.4111 | 1153.38 | 1574.6
298.15 K, x1 = 0.5003 | 1180.74 | 1586.9
298.15 K, x1 = 0.585 | 1202.77 | 1596.1
298.15 K, x1 = 0.6965 | 1227.44 | 1605.9
298.15 K, x1 = 0.7833 | 1243.3 | 1612.9
298.15 K, x1 = 0.9134 | 1263.82 | 1620.9
298.15 K, x1 = 1 | 1282.14 | 1628.4
303.15 K, x1 = 0.0997 | 1010.19 | 1488.6
303.15 K, x1 = 0.2042 | 1066.81 | 1519
303.15 K, x1 = 0.2983 | 1108.42 | 1540.4
303.15 K, x1 = 0.4111 | 1149.29 | 1560.1
303.15 K, x1 = 0.5003 | 1176.72 | 1573
303.15 K, x1 = 0.585 | 1198.81 | 1582.7
303.15 K, x1 = 0.6965 | 1223.53 | 1593
303.15 K, x1 = 0.7833 | 1239.43 | 1600.5
303.15 K, x1 = 0.9134 | 1259.99 | 1608.8
303.15 K, x1 = 1 | 1278.34 | 1616
308.15 K, x1 = 0.0997 | 1005.7 | 1470.8
308.15 K, x1 = 0.2042 | 1062.49 | 1502.6
308.15 K, x1 = 0.2983 | 1104.23 | 1524.9
308.15 K, x1 = 0.4111 | 1145.23 | 1545.6
308.15 K, x1 = 0.5003 | 1172.72 | 1559.2
308.15 K, x1 = 0.585 | 1194.86 | 1569.4
308.15 K, x1 = 0.6965 | 1219.63 | 1580.3
308.15 K, x1 = 0.7833 | 1235.57 | 1588.2
308.15 K, x1 = 0.9134 | 1256.17 | 1596.9
308.15 K, x1 = 1 | 1274.55 | 1604.9
313.15 K, x1 = 0.0997 | 1001.2 | 1453.1
313.15 K, x1 = 0.2042 | 1058.19 | 1486.2
313.15 K, x1 = 0.2983 | 1100.05 | 1509.6
313.15 K, x1 = 0.4111 | 1141.17 | 1531.3
313.15 K, x1 = 0.5003 | 1168.73 | 1545.6
313.15 K, x1 = 0.585 | 1190.92 | 1556.3
313.15 K, x1 = 0.6965 | 1215.75 | 1567.7
313.15 K, x1 = 0.7833 | 1231.73 | 1576
313.15 K, x1 = 0.9134 | 1252.37 | 1585
313.15 K, x1 = 1 | 1270.78 | 1593.4
318.15 K, x1 = 0.0997 | 996.709 | 1435.6
318.15 K, x1 = 0.2042 | 1053.89 | 1470
318.15 K, x1 = 0.2983 | 1095.88 | 1494.4
318.15 K, x1 = 0.4111 | 1137.12 | 1517.1
318.15 K, x1 = 0.5003 | 1164.76 | 1532
318.15 K, x1 = 0.585 | 1187 | 1543.3
318.15 K, x1 = 0.6965 | 1211.89 | 1555.3
318.15 K, x1 = 0.7833 | 1227.91 | 1563.9
318.15 K, x1 = 0.9134 | 1248.58 | 1573.3
318.15 K, x1 = 1 | 1267.03 | 1582
323.15 K, x1 = 0.0997 | 992.209 | 1418.1
323.15 K, x1 = 0.2042 | 1049.59 | 1453.8
323.15 K, x1 = 0.2983 | 1091.72 | 1479.3
323.15 K, x1 = 0.4111 | 1133.08 | 1503
323.15 K, x1 = 0.5003 | 1160.79 | 1518.6
323.15 K, x1 = 0.585 | 1183.1 | 1530.4
323.15 K, x1 = 0.6965 | 1208.05 | 1542.9
323.15 K, x1 = 0.7833 | 1224.11 | 1551.9
323.15 K, x1 = 0.9134 | 1244.82 | 1561.7
323.15 K, x1 = 1 | 1263.3 | 1570.6
328.15 K, x1 = 0.0997 | 987.708 | 1400.7
328.15 K, x1 = 0.2042 | 1045.31 | 1437.8
328.15 K, x1 = 0.2983 | 1087.57 | 1464.2
328.15 K, x1 = 0.4111 | 1129.05 | 1489
328.15 K, x1 = 0.5003 | 1156.85 | 1505.2
328.15 K, x1 = 0.585 | 1179.21 | 1517.6
328.15 K, x1 = 0.6965 | 1204.22 | 1530.6
328.15 K, x1 = 0.7833 | 1220.32 | 1540
328.15 K, x1 = 0.9134 | 1241.07 | 1550.1
328.15 K, x1 = 1 | 1259.58 | 1559.4
333.15 K, x1 = 0.0997 | 983.204 | 1383.3
333.15 K, x1 = 0.2042 | 1041.01 | 1421.8
333.15 K, x1 = 0.2983 | 1083.42 | 1449.3
333.15 K, x1 = 0.4111 | 1125.03 | 1475
333.15 K, x1 = 0.5003 | 1152.91 | 1492
333.15 K, x1 = 0.585 | 1175.33 | 1504.8
333.15 K, x1 = 0.6965 | 1200.41 | 1518.4
333.15 K, x1 = 0.7833 | 1216.55 | 1528.2
333.15 K, x1 = 0.9134 | 1237.34 | 1538.7
333.15 K, x1 = 1 | 1255.88 | 1548.2
338.15 K, x1 = 0.0997 | 978.699 | 1366.1
338.15 K, x1 = 0.2042 | 1036.73 | 1405.9
338.15 K, x1 = 0.2983 | 1079.28 | 1434.5
338.15 K, x1 = 0.4111 | 1121.03 | 1461.2
338.15 K, x1 = 0.5003 | 1148.99 | 1478.9
338.15 K, x1 = 0.585 | 1171.47 | 1492.2
338.15 K, x1 = 0.6965 | 1196.61 | 1506.4
338.15 K, x1 = 0.7833 | 1212.8 | 1516.5
338.15 K, x1 = 0.9134 | 1233.63 | 1527.4
338.15 K, x1 = 1 | 1252.2 | 1537.2
343.15 K, x1 = 0.0997 | 974.184 | 1348.9
343.15 K, x1 = 0.2042 | 1032.45 | 1390.2
343.15 K, x1 = 0.2983 | 1075.15 | 1419.8
343.15 K, x1 = 0.4111 | 1117.03 | 1447.5
343.15 K, x1 = 0.5003 | 1145.07 | 1465.8
343.15 K, x1 = 0.585 | 1167.62 | 1479.7
343.15 K, x1 = 0.6965 | 1192.82 | 1494.4
343.15 K, x1 = 0.7833 | 1209.06 | 1504.9
343.15 K, x1 = 0.9134 | 1229.93 | 1516.1
343.15 K, x1 = 1 | 1248.54 | 1526.2
